What is called IC50 is the midpoint of a concentration-inhibition curve. Higher therefore signals a need for much substance. As usually defined, the EC50 is the concentration at which the effect is half-maximal.

In patent US8350039B2, “Substituted isoquinoline derivatives, pharmaceutical compositions, and methods of use as beta-secretase inhibitors” (High Point Pharmaceuticals, LLC, priority 2009, dated 2013) one finds IC50 and EC50 data, which are given here for twelve compounds.

Assay [1] addresses T1, BACE-1 enzyme (Homo sapiens, UniProt P56817).
T1 construct: purchased R & D Systems 931AS
The assay can be described thus: BACE Fluorescence Resonance Energy Transfer (FRET) Assay. The format is biochemical. Conditions: peptide substrate, pH 4-4.5, 30 min pre-incubation, 1.5 hours at room temperature. As to the method:
BACE Fluorescence Resonance Energy Transfer (FRET) Assay
In the following assay, the proteolytic activity of BACE is measured by observing cleavage of a fluorescent group from a peptide substrate containing a rhodamine fluorescent donor and a quenching acceptor.
The inhibitory activity of compounds of Formula (I) may be compared to a statine derived control inhibitor STA200 (MP Biomedical Cat. #STA-200). The cleavage reaction occurs when a BACE-1 substrate (Invitrogen, Cat. #P2986) was added to a reaction mixture containing BACE-1 enzyme (R & D Systems, Cat. #931AS) and allowed to proceed for 1.5 hours. Fluorescence, used as a marker of BACE activity, is monitored using 540 nm excitation and 585 nm emission wavelengths (Envision, Perkin Elmer).
A typical assay reaction contains BACE-1 enzyme—in assay buffer (50 mM sodium acetate, pH 4-4.5, 0.01% CHAPS (3-[(3-Cholamidopropyl)dimethylammonio]-1-propanesulfonate), 0.0125% TritonX-100, 0.006% EDTA) which is pre-incubated for 30 minutes with test compound in 7.5% DMSO. The reaction is initiated with the addition of BACE-1 substrate in assay buffer and allowed to proceed for 1.5 hours at room temperature. Assays are conducted in black 384-well microtiter plates and scanned at room temperature using 540 nm excitation and 585 nm emission wavelengths.
A test compound's activity is reported as the IC50.

Assay [2] deals with HEK293 cells stably expressing wildtype human APP695 protein (HEK-APPwt cells). The assay can be described thus: Aβ Cell Based Assay (Aβ1-40 secretion, ELISA). Conditions: reduction of Aβ1-40 secretion from HEK-APPwt cells, 6 hours incubation, DAPT as 100% inhibition reference. As to the method:
Aβ Cell Based Assay Procedure
In the following assay, the proteolytic activity of BACE in cells exposed to varying concentrations of a compound of interest is measured by observing the amount of Aβ1-40 secreted from HEK293 cells (Human Embryonic Kidney epithelial cell line) stably expressing wildtype human APP695 protein (HEK-APPwt cells).
HEK-APPwt cells were grown in high glucose DMEM (Dulbecco's Modified Eagles Medium SIGMA Cat. #D5796) supplemented with 25 mM HEPES (4-(2-hydroxyethyl)-1-piperazineethanesulfonic acid) (pH 7.4) (Invitrogen Cat. #15630-114), 0.1 mM NEAA (Non-essential Amino Acids) (BioWhittaker Cat. #13-114E), 10% fetal bovine serum (SIGMA Cat. #F4135) and 250 μg/mL hygromycin (Invitrogen Cat. #10687-010) in T-225 flasks at 37° C. with 5% CO2 and humidity control.
Test compounds were initially prepared in DMSO and diluted with DMEM media containing 2% FBS (Fetal bovine serum). Ten standard compound solutions were prepared having a range of concentrations. The standard compound solutions were used to determine the EC50 of the test compound. The range of concentrations chosen may depend on the compound's predicted potency.
To prepare the cells for the assay, a flask containing HEK-APPwt cells were trypsinized briefly (1 mL trypsin), and once the cells detached, 4 mL of 10% FBS-DMEM was added to the flask. The detached cells were centrifuged at 900 rpm for 5 min to form a pellet.
The HEK-APPwt cell pellet was re-suspended with 10 mL DMEM media containing 2% FBS. 80 μL of the cell suspension was added to each well of a 96-well cell culture plate to give 100×10^4 cells/mL. 10 μL of a standard compound solution was added to each well of the 96-well cell culture plate followed by 10 μL of Alamar blue solution. The cells were incubated at 37° C. in a 5% CO2 incubator for 6 hours.
At the end of the incubation, the plates were removed from incubator, and the supernatant was collected. Aβ1-40 concentration in the medium was measured by using a commercial Aβ1-X ELISA kit (IBL, Japan Cat. #27729). Briefly, the ELISA plates were coated with an anti-human Aβ (N)(82E1) mouse IgG monoclonal antibody. A horseradish peroxidase conjugated anti-human Aβ11-28 mouse IgG monoclonal antibody was used for detection. The cell culture supernatant was diluted with EIA buffer+protease inhibitors (kit buffer containing protease inhibitors (1 mL PI/30 mL buffer)). A 100 μL aliquot of the diluted supernatant was added to each well of the ELISA plate and incubated for 6 hrs at 4° C. The ELISA plate was washed 8 times with phosphate buffered saline (PBS) containing 0.05% Tween 20.
A 100 μL of detection antibody was then added and incubated for 1 hour at 4° C. The plate was washed 8 times with PBS buffer containing 0.05% Tween 20 followed by addition of 100 μL of the chromogen tetramethylbenzidine (TMB). The plate was incubated in the dark at room temperature for about 30 min and a stop solution (1N H2SO4) was added.
The intensity of the color developed was measured at 450 nm. The optical density at 450 nm (OD450) is proportional to the concentration of human Aβ1-40 secreted by the cell. As a reference, N—[N-(3,5-difluorophenacetyl-L-alanyl)]-S-phenylglycine t-butyl ester (DAPT, a γ-secretase inhibitor) was used to indicate 100% inhibition of BACE activity. Thus, the assay measures the ability of a compound of interest to reduce Aβ1-40 secretion. Compound potency was reported as the EC50 by calculating the percent inhibition at all concentration levels and the data were fit with non-linear curve fitting algorithm using in GraphPad Prism.
For orientation: An ELISA detects its analyte on a solid surface through an enzyme-linked reagent.

T1 sequence (P56817 46-457 limits assumed): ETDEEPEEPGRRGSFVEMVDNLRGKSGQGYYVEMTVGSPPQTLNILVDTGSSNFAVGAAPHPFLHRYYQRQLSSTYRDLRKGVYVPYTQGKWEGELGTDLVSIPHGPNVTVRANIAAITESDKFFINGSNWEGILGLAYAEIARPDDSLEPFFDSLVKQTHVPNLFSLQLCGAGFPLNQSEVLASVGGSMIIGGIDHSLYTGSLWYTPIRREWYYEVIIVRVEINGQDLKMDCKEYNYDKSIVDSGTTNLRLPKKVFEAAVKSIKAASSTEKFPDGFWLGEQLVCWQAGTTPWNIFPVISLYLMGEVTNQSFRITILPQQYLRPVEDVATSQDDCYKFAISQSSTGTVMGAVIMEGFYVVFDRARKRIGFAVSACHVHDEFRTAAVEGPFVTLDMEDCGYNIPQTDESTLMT

In assay [1], `O=C(Nc1nc2cc(OCc3ccccc3)ccc2[nH]1)c1cc2ccccc2cn1` [Example 1, Isoquinoline-3-carboxylic acid (5-benzyloxy-1H-benzoimidazol-2-yl)-amide] yielded an IC50 of 0.085 µM. This compound returned an EC50 in assay [2] of 0.12 µM.
The matching figures for `O=C(Nc1nc2cc(OCCc3ccccc3)ccc2[nH]1)c1cc2ccccc2cn1` [Example 2, Isoquinoline-3-carboxylic acid (5-phenethyloxy-1H-benzoimidazol-2-yl)-amide]: 0.19 µM and 2 µM.
The like results for `O=C(Nc1nc2cc(OCc3ccc(C(F)(F)F)cc3)ccc2[nH]1)c1cc2ccccc2cn1` [Example 3, Isoquinoline-3-carboxylic acid [5-(4-trifluoromethyl-benzyloxy)-1H-benzoimidazol-2-yl]-amide] were, in that order, 0.95 µM and 0.55 µM.
The like results for `O=C(Nc1nc2cc(OCc3ccc(F)cc3)ccc2[nH]1)c1cc2ccccc2cn1` [Example 4, Isoquinoline-3-carboxylic acid [5-(4-fluoro-benzyloxy)-1H-benzoimidazol-2-yl]-amide] were, in that order, 0.1 µM and 0.16 µM.
The compound `O=C(Nc1nc2cc(OCc3ccc(F)cc3F)ccc2[nH]1)c1cc2ccccc2cn1` [Example 5, Isoquinoline-3-carboxylic acid [5-(2,4-difluoro-benzyloxy)-1H-benzoimidazol-2-yl]-amide] returned an IC50 in assay [1] of 0.86 µM. Moreover, the EC50 in assay [2] amounted to 1.2 µM.
The like results for `O=C(Nc1nc2cc(OCCC3CCCC3)ccc2[nH]1)c1cc2ccccc2cn1` [Example 6, Isoquinoline-3-carboxylic acid [5-(2-cyclopentyl-ethoxy)-1H-benzoimidazol-2-yl]-amide] were, in that order, 0.26 µM and 0.16 µM.
The matching figures for `O=C(Nc1nc2cc(N3CCC(c4ccccc4)CC3)ccc2[nH]1)c1cc2ccccc2cn1` [Example 7, Isoquinoline-3-carboxylic acid [5-(4-phenyl-piperidin-1-yl)-1H-benzoimidazol-2-yl]-amide]: 0.1 µM and 1.4 µM.
The like results for `O=C(Nc1nc2cc(OCCCc3ccccc3)ccc2[nH]1)c1cc2ccccc2cn1` [Example 8, Isoquinoline-3-carboxylic acid [5-(3-phenyl-propoxy)-1H-benzoimidazol-2-yl]-amide] were, in that order, 0.47 µM and 1.2 µM.
`O=C(Nc1nc2cc(-c3ccccc3)ccc2[nH]1)c1cc2ccccc2cn1` [Example 9, Isoquinoline-3-carboxylic acid (5-phenyl-1H-benzoimidazol-2-yl)-amide] had an IC50 in assay [1] of 0.19 µM. Moreover, the EC50 in assay [2] was found to be 1.09 µM.
`COc1cccc(-c2ccc3[nH]c(NC(=O)c4cc5ccccc5cn4)nc3c2)c1` [Example 10, Isoquinoline-3-carboxylic acid [5-(3-methoxy-phenyl)-1H-benzoimidazol-2-yl]-amide] gave an IC50 in assay [1] of 0.16 µM. In addition, the midpoint of the response in assay [2], the EC50, lay at 1 µM.
The matching figures for `O=C(Nc1nc2cc(NCc3ccccc3)ccc2[nH]1)c1cc2ccccc2cn1` [Example 11, Isoquinoline-3-carboxylic acid (5-benzylamino-1H-benzoimidazol-2-yl)-amide]: 0.13 µM and 0.6 µM.
The like results for `O=C(Nc1nc2cc(N(Cc3ccccc3)Cc3ccccc3)ccc2[nH]1)c1cc2ccccc2cn1` [Example 12, Isoquinoline-3-carboxylic acid (5-dibenzylamino-1H-benzoimidazol-2-yl)-amide] were, in that order, 0.38 µM and 2.3 µM.
